Measured values: US20110166149A1, “PTERIDINE DERIVATIVES FOR TREATING RESPIRATORY DISEASE” (TARGEGEN INC., priority 2008, published 2011)
Values joined by “and” are separate entries in the source; they are usually repeats but may differ in a detail not shown here. Equal entries are not always repeated. Where two headings read alike, the source gives them in different places.

Key:
Solubility of Compound A = assay type: physicochemical
[1] = Aerodynamic particle size of nebulized suspensions, 7 stage impactor (Example 1); assay type: physicochemical; conditions: nebulized suspension
Description: 6,7-bis(3-hydroxyphenyl)-pteridine-2,4-diamine (Compound A) was formulated as a 20% suspension in a 5% tyloxapol solution in water. Particle size reduction was achieved using a colloid mill (magicLAB®, MK module, for 6 hours @ 12,000 rpm, while maintaining a temperature below 50° C.). Samples at 4, 0.4, 0.04 and 0.004% of compound A were prepared by dilution with DI water.
Nebulizations of the suspensions were carried out using a Pari LC Plus @ 3 LPM, using an active diluter at 5 LPM in a CH technologies nose-only exposure chamber. Aerodynamic particle size was determined by a 7 stage impactor from Intox at 1 LPM. Each stage extracted with acetonitrile:water 1:1 with 0.05% TFA and analyzed by HPLC against an external standard.

[2] = Estimated lung exposure level calculated from respirable dose (Example 1); conditions: 30 minute exposure assumed, mouse
Description: Estimated lung exposure levels were calculated based on the following assumptions: respirable dose collected from 7 stage impactor; 30 minute exposure time; mouse minute volume of 23 mL/min; mouse weight of 25 g; mouse lung weight of 250 mg (1% of body weight).

[3] = Lung exposure in mice, nose-only chamber nebulization (Example 3); assay type: in vivo, Balb/c mice; conditions: 30 min nebulization, immediately after
Description: A series of compositions for pulmonary delivery were prepared by making a 20% suspension of compound A in a 5% tyloxapol solution in water. Particle size reduction was achieved using a colloid mill (magicLAB®, MK module, for 6 hours @ 12,000 rpm, while maintaining a temperature below 50° C.). Samples at 4% compound A were prepared by dilution with DI water. A 0.4% compound A suspension in 0.1% tyloxapol solution, was made by dilution with SWFI (6.02 g of the 20% suspension was QS to 30.23 g with SWFI).
0.4% compound A suspension in 0.1% tyloxapol solution: 2.07 g of a 4% compound A suspension was diluted to 20 g with DI water.
0.04% compound A suspension in 0.01% tyloxapol solution: 2.03 g of a 0.4% compound A suspension was diluted to 20 g with DI water. 0.004% compound A suspension in 0.001% tyloxapol solution: 2.05 g of a 0.04% compound A suspension was diluted to 20 g with DI water.
Compositions were delivered via a nose-only chamber (CH Technologies) to Balb/c mice by nebulizing for 30 minutes the composition with a PARI LC plus at 3 LPM with a 5 LPM dilutor (of dry air), tissues, plasma and BALF (3 mL used of PBS) collected after sacrificing immediately after nebulization, and were analyzed by HPLC-MS.

[4] = system: ovalbumin (OVA) challenged mice; assay: Mouse airway resistance, methacholine challenge (Example 4); assay type: in vivo; conditions: aerosolized formulations, FIG. 4
Description: A series of compositions for pulmonary delivery were prepared by first preparing a 20% suspension of compound A in a 5% tyloxapol solution in water. Particle size reduction was achieved using a colloid mill (magicLAB®, MK module, for 6 hours @ 12,000 rpm, while maintaining a temperature below 50° C.). Samples at 4% compound A were prepared by dilution with DI water. A 0.4% compound A suspension in 0.1% tyloxapol solution was made by dilution with SWFI (6.02 g of the 20% suspension was QS to 30.23 g with SWFI) and the following suspensions were also prepared: • […] in 0.01% tyloxapol solution: 2.52 g of a 0.4% compound A suspension was diluted to 100 g with SWFI water. • 0.01% compound A suspension in 0.01% tyloxapol solution: 10 g of a 0.1% compound A suspension was diluted to 100 g with SWFI water. • 0.001% compound A suspension in 0.01% tyloxapol solution 3: 10 g of a 0.1% compound A suspension was diluted to 100 g with SWFI water. […] Airway resistance in the model is induced via a methacholine challenge. Airway resistance is both a diagnostic and a hallmark of respiratory diseases such as asthma and COPD and the reduction of airway resistance is considered a beneficial outcome.

[5] = Particle size of nebulized solution, 7 stage cascade impactor (Example 5); assay type: physicochemical; conditions: nebulized solution ~3.3 mg/mL, pH ~3, tyloxapol/PVP 90F
Description: 36 mg of compound A was dissolved with the aid of 0.5 N HCl (QS to 1 g) under mixing and heat. 200 μL of this solution was mixed using a sonicator bath, if necessary with a separately prepared solution containing 1.8 mg of a 0.02% tyloxapol/2% PVP 90F and 34 μL of a 2 N NaOH, to give a final concentration of ˜3.3 mg/mL of compound A at a pH of ˜3.

[6] = Stability / precipitation of compound A solutions at pH ~3 (Examples 5, 6); assay type: physicochemical
Description: 36 mg of compound A was dissolved with the aid of 0.5 N HCl (QS to 1 g) under mixing and heat. 200 μL of this solution was mixed using a sonicator bath, if necessary with a separately prepared solution containing 1.8 mg of a 0.02% tyloxapol/2% PVP 90F and 34 μL of a 2 N NaOH, to give a final concentration of ˜3.3 mg/mL of compound A at a pH of ˜3. […] 200 μL of the above solution was mixed using a sonicator bath, if necessary with a solution containing 1.8 mg of a 0.02% tyloxapol/2% PVP 90F and 10 μL of a 2 N NaOH, to give a final concentration of ˜5 mg/mL of compound A at a pH of ˜3. This solution will start precipitating ˜20 min.

[7] = formulation conc. 0.004%, individual animals 3A-3E
[8] = formulation conc. 0.04%, individual animals 2A-2E
[9] = formulation conc. 0.40%, individual animals 1A-1E

- dissolution in organic solvents (Solubility of Compound A; DMSO and selected aprotic solvents with high dielectric constants): readily dissolves
- solubility (Solubility of Compound A; between pH of 3 and 9): negligible solubility
- solubility (Solubility of Compound A; water, aqueous buffer, pH below 2 and above 10, read-out: water solubility): > 20 mg/mL
- MMAD (GSD) ([1]; 0.004% Compound A): 0.64 (2.35)
- MMAD (GSD) ([1]; 0.04% Compound A): 0.69 (1.74)
- MMAD (GSD) ([1]; 0.4% Compound A): 0.83 (1.87)
- MMAD (GSD) ([1]; 4% Compound A, MMAD = mass median aerodynamic diameter, GSD = geometric standard deviation): 1.35 (1.98)
- Estimated lung conc. ([2]; 0.004% Compound A suspension): 0.1 µg/g
- Estimated lung conc. ([2]; 0.04% Compound A suspension): 1.4 µg/g
- Estimated lung conc. ([2]; 0.4% Compound A suspension): 11 µg/g
- Estimated lung conc. ([2]; 4% Compound A suspension): 75 µg/g
- Compound A concentration BALF ([3]; formulation conc. 0.004%, Mean): 22.9 ± 34.0 ng/mL
- Compound A concentration Lung ([3]; formulation conc. 0.004%, Mean): 0.12 ± 0.02 µg/g
- Compound A concentration Plasma ([3]; formulation conc. 0.004%, Mean): <LLOQ
- Compound A concentration Plasma [3, 7]: <LLOQ
- Compound A concentration BALF ([3]; formulation conc. 0.04%, Mean): 71.6 ± 38.4 ng/mL
- Compound A concentration Lung ([3]; formulation conc. 0.04%, Mean): 1.48 ± 0.49 µg/g
- Compound A concentration Plasma [3, 8]: <LLOQ (4×) and 6.37 ng/mL
- Compound A concentration BALF ([3]; formulation conc. 0.40%, Mean): 1870 ± 1902 ng/mL
- Compound A concentration Lung ([3]; formulation conc. 0.40%, Mean): 6.7 ± 1.1 µg/g
- Compound A concentration Plasma ([3]; formulation conc. 0.40%, Mean): 5.16 ± 2.39 ng/mL
- GSD [5]: 2.1
- MMAD [5]: ~1 μm
- solution stability ([6]; ~3.3 mg/mL, pH ~3, tyloxapol/PVP 90F (Example 5)): stable for more than an hour
- time to start of precipitation ([6]; ~5 mg/mL, pH ~3, tyloxapol/PVP 90F (Example 6)): ~20 min
SMILES: Nc1nc(N)c2nc(-c3cccc(O)c3)c(-c3cccc(O)c3)nc2n1 [Compound A, 6,7-bis(3-hydroxyphenyl)-pteridine-2,4-diamine]
- Compound A concentration BALF [3, 7]: 83.6 ng/mL and 10.0 ng/mL and 7.84 ng/mL and 7.82 ng/mL and 4.99 ng/mL
- Compound A concentration Lung [3, 7]: 0.14 μg/g and 0.12 μg/g and 0.10 μg/g (2×) and 0.13 μg/g
- Compound A concentration BALF [3, 8]: 62.6 ng/mL and 93 ng/mL and 92.1 ng/mL and 102 ng/mL and 8.19 ng/mL
- Compound A concentration Lung [3, 8]: 2.3 µg/g and 1.0 µg/g and 1.5 µg/g and 1.4 µg/g and 1.3 µg/g
- Compound A concentration BALF [3, 9]: 1370 ng/mL and 5240 ng/mL and 1200 ng/mL and 804 ng/mL and 737 ng/mL
- Compound A concentration Lung [3, 9]: 8.2 μg/g and 32.1(?) μg/g and 6.1 μg/g and 6.5 μg/g and 5.9 μg/g
- Compound A concentration Plasma [3, 9]: 2.51 ng/mL and 3.98 ng/mL and 8.46 ng/mL and 6.73 ng/mL and 4.1 ng/mL
- airway resistance [4]: reduced airway resistance
